Assay results published in patent US20170037028A1 (BAYER PHARMA AKTIENGESELLSCHAFT, priority 2013, published 2017).
pIC50: −log10 of the molar value. Where two headings read alike, the source gives them in different places.

Molecular target: T1, GLUT1 (Homo sapiens, UniProt P11166)
T1 sequence (P11166 1-492): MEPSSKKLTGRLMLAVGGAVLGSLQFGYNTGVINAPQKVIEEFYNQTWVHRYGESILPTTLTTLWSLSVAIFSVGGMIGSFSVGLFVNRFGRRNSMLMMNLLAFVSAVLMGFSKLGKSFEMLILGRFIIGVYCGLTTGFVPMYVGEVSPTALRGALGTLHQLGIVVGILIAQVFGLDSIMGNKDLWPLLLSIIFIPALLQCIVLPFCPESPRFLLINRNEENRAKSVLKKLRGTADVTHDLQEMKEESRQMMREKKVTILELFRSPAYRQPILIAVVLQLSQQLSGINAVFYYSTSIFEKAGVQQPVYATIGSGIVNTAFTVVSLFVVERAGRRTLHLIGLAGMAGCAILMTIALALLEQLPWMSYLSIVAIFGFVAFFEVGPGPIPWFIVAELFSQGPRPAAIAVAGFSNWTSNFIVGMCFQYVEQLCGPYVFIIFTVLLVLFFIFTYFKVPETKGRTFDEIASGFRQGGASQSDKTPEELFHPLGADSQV
Assay: Indirect measurement of GLUT1 activity by quantification of intracellular ATP levels (glucose induced ATP increase)
Format: cell-based
Set-up: endogenous in cells; host or cells: DLD1 or CHO-K1
Settings: read-out: IC50 regarding glucose induced ATP increase (GLUT1 inhibition)
Method in brief: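 DLD1 or CHO-K1 cells were starved overnight in glucose-free medium with 1% FCS, then combined with an oxidative phosphorylation inhibitor. GLUT1 activity was read as glucose-induced ATP increase, GLUT2 as fructose-induced. Intracellular ATP was quantified by CellTiter-Glo luminescence.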

[1] = DLD1 cells, 0.1 mM glucose, 1 μM Rotenone, 15 min, CellTiter-Glo ATP readout, IC50 values standardized to cytochalasin B IC50 values

Row | Structure (SMILES) | pIC50 | pIC50 [1]
1 | Cc1nn(Cc2cccnc2C#N)c(C)c1NC(=O)c1cc(C(N)=O)nc2cc(F)c(F)cc12 [Example 220, N^4-{1-[(2-cyanopyridin-3-yl)methyl]-3,5-dimethyl-1H-pyrazol-4-yl}-6,7-difluoroquinoline-2,4-dicarboxamide] | 8.19 | 
2 | Cc1nn(Cc2ccccc2C#N)c(C)c1NC(=O)c1cc(C(N)=O)nc2ccc(F)cc12 [Example 221, N^4-[1-(2-cyanobenzyl)-3,5-dimethyl-1H-pyrazol-4-yl]-6-fluoroquinoline-2,4-dicarboxamide] | 8.17 | 
3 | Cc1nn(Cc2ncccc2C#N)c(C)c1NC(=O)c1cc(C(N)=O)nc2cc(F)c(F)cc12 [Example 222, N^4-{1-[(3-cyanopyridin-2-yl)methyl]-3,5-dimethyl-1H-pyrazol-4-yl}-6,7-difluoroquinoline-2,4-dicarboxamide] | 8.15 | 
4 | Cc1nn(Cc2cccnc2C#N)c(C)c1NC(=O)c1cc(C(N)=O)nc2ccccc12 [Example 223, N^4-{1-[(2-cyanopyridin-3-yl)methyl]-3,5-dimethyl-1H-pyrazol-4-yl}quinoline-2,4-dicarboxamide] | 7.95 | 
5 | Cc1nn(Cc2ccc(S(C)(=O)=O)cc2)c(C)c1NC(=O)c1cc(C(N)=O)nc2ccccc12 [Example 224, N^4-{3,5-dimethyl-1-[4-(methylsulfonyl)benzyl]-1H-pyrazol-4-yl}quinoline-2,4-dicarboxamide] | 7.95 | 
6 | Cc1nn(Cc2ccc(C#N)nc2)c(C)c1NC(=O)c1cc(C(N)=O)nc2ccccc12 [Example 225, N^4-{1-[(6-cyanopyridin-3-yl)methyl]-3,5-dimethyl-1H-pyrazol-4-yl}quinoline-2,4-dicarboxamide] | 7.85 | 
7 | COc1ccc(Cn2nc(C)c(NC(=O)c3cc(C(N)=O)nc4cc(F)c(F)cc34)c2C)cc1 [Example 226, 6,7-difluoro-N^4-[1-(4-methoxybenzyl)-3,5-dimethyl-1H-pyrazol-4-yl]quinoline-2,4-dicarboxamide] | 8.40 | 
8 | COc1ccc(Cn2nc(C)c(NC(=O)c3cc(C(N)=O)nc4ccc(F)cc34)c2C)cc1 [Example 227, 6-fluoro-N^4-[1-(4-methoxybenzyl)-3,5-dimethyl-1H-pyrazol-4-yl]quinoline-2,4-dicarboxamide] | 8.34 | 
9 | Cc1nn(Cc2ccc(C#N)cc2)c(C)c1NC(=O)c1cc(C(N)=O)nc2ccc(F)cc12 [Example 228, N^4-[1-(4-cyanobenzyl)-3,5-dimethyl-1H-pyrazol-4-yl]-6-fluoroquinoline-2,4-dicarboxamide] | 8.34 | 
10 | Cc1nn(Cc2ccc(F)cc2)c(C)c1NC(=O)c1cc(C(N)=O)nc2ccc(F)cc12 [Example 229, 6-fluoro-N^4-[1-(4-fluorobenzyl)-3,5-dimethyl-1H-pyrazol-4-yl]quinoline-2,4-dicarboxamide] | 8.34 | 
11 | Cc1nn(Cc2ccc(C#N)cc2)c(C)c1NC(=O)c1cc(C(N)=O)nc2cc(F)c(F)cc12 [Example 230, N^4-[1-(4-cyanobenzyl)-3,5-dimethyl-1H-pyrazol-4-yl]-6,7-difluoroquinoline-2,4-dicarboxamide] | 8.30 | 
12 | Cc1nn(Cc2ccc(S(C)(=O)=O)cc2)c(C)c1NC(=O)c1cc(C(N)=O)nc2cc(F)c(F)cc12 [Example 231, N^4-{3,5-dimethyl-1-[4-(methylsulfonyl)benzyl]-1H-pyrazol-4-yl}-6,7-difluoroquinoline-2,4-dicarboxamide] | 8.24 | 
13 | Cc1nn(Cc2ccccc2C#N)c(C)c1NC(=O)c1cc(C(N)=O)nc2ccccc12 [Example 232, N^4-[1-(2-cyanobenzyl)-3,5-dimethyl-1H-pyrazol-4-yl]quinoline-2,4-dicarboxamide] | 8.15 | 
14 | COc1ccc2nc(C3CC3)cc(C(=O)Nc3c(C)nn(Cc4ccc(F)cc4)c3C)c2c1 [Example 233, 2-cyclopropyl-N-[1-(4-fluorobenzyl)-3,5-dimethyl-1H-pyrazol-4-yl]-6-methoxyquinoline-4-carboxamide] | 8.14 | 
15 | Cc1nn(Cc2ncccc2C#N)c(C)c1NC(=O)c1cc(C(F)(F)F)nc2ccc(Br)cc12 [Example 234, 6-bromo-N-{1-[(3-cyanopyridin-2-yl)methyl]-3,5-dimethyl-1H-pyrazol-4-yl}-2-(trifluoromethyl)quinoline-4-carboxamide] | 8.04 | 
16 | Cc1nn(Cc2ccccc2C#N)c(C)c1NC(=O)c1cc(C(N)=O)nc2cc(F)c(F)cc12 [Example 235, N^4-[1-(2-cyanobenzyl)-3,5-dimethyl-1H-pyrazol-4-yl]-6,7-difluoroquinoline-2,4-dicarboxamide] | 7.96 | 
17 | COc1ccc(Cn2nc(C)c(NC(=O)c3cc(C(N)=O)nc4cc(F)c(F)cc34)c2C)cc1F [Example 236, 6,7-difluoro-N^4-[1-(3-fluoro-4-methoxybenzyl)-3,5-dimethyl-1H-pyrazol-4-yl]quinoline-2,4-dicarboxamide] | 9.40 | 
18 | COc1ccc(Cn2nc(C)c(NC(=O)c3cc(C(N)=O)nc4cc(F)c(Cl)cc34)c2C)cc1F [Example 237, 6-chloro-7-fluoro-N^4-[1-(3-fluoro-4-methoxybenzyl)-3,5-dimethyl-1H-pyrazol-4-yl]quinoline-2,4-dicarboxamide] | 9.40 | 
19 | COc1ccc(Cn2nc(C)c(NC(=O)c3cc(C(N)=O)nc4ccccc34)c2C)cc1F [Example 238, N^4-[1-(3-fluoro-4-methoxybenzyl)-3,5-dimethyl-1H-pyrazol-4-yl]quinoline-2,4-dicarboxamide] | 8.96 | 
20 | COc1cc(C(=O)Nc2c(C)nn(Cc3ccc(OC)c(F)c3)c2C)c2ccccc2n1 [Example 239, N-[1-(3-fluoro-4-methoxybenzyl)-3,5-dimethyl-1H-pyrazol-4-yl]-2-methoxyquinoline-4-carboxamide] | 8.54 | 
21 | Cc1c(NC(=O)c2cc(C(N)=O)nc3c(F)cc(Cl)cc23)c(C(F)(F)F)nn1Cc1ccc(C#N)cc1 [Example 241, 6-chloro-N^4-[1-(4-cyanobenzyl)-5-methyl-3-(trifluoromethyl)-1H-pyrazol-4-yl]-8-fluoroquinoline-2,4-dicarboxamide] | 8.96 | 
22 | COc1cc2c(C(=O)Nc3c(C(F)(F)F)nn(Cc4ccc(C#N)cc4)c3C)cc(C(N)=O)nc2cc1F [Example 242, N^4-[1-(4-cyanobenzyl)-5-methyl-3-(trifluoromethyl)-1H-pyrazol-4-yl]-7-fluoro-6-methoxyquinoline-2,4-dicarboxamide] | 9.00 | 
23 | Cc1c(NC(=O)c2cc(C(N)=O)nc3cc(F)cc(F)c23)c(C(F)(F)F)nn1Cc1ccc(C#N)cc1 [Example 243, N^4-[1-(4-cyanobenzyl)-5-methyl-3-(trifluoromethyl)-1H-pyrazol-4-yl]-5,7-difluoroquinoline-2,4-dicarboxamide] |  | 9.30
24 | Cc1cccc2nc(C(N)=O)cc(C(=O)Nc3c(C(F)(F)F)nn(Cc4ccc(C#N)cc4)c3C)c12 [Example 244, N^4-[1-(4-cyanobenzyl)-5-methyl-3-(trifluoromethyl)-1H-pyrazol-4-yl]-5-methylquinoline-2,4-dicarboxamide] | 7.75 | 
25 | COc1ccc2nc(C(N)=O)cc(C(=O)Nc3c(C(F)(F)F)nn(Cc4ccc(C#N)cc4)c3C)c2c1 [Example 245, N^4-[1-(4-cyanobenzyl)-5-methyl-3-(trifluoromethyl)-1H-pyrazol-4-yl]-6-methoxyquinoline-2,4-dicarboxamide] |  | 9.52
